What was measured:
[1] = system: BiBo cells; test: Apoptosis induction in polycytostatics-resistant BiBo cells vs BJAB; type: cell-based; conditions: vincristine-resistant BJAB, Bcl-2 overexpression
Procedure: BiBo cells are lymphoma cells (BJAB cells) that have been made resistent against vincristine, and have a Bcl-2 overexpression as a resistence mechanism. They have co-resistences for the following cytostatics: • vincristine, vinblastine, vindesine, vinorelbin, taxol • cytarabin • daunorubicin.
The experiments were performed in triplicate. The error bars show the standard deviations of the measured values of three independent experiments. The steroid WIL 071 overcomes steroid resistence in lymphoma cells (BiBo cells).

[2] = system: neuroblastoma cells (SKNAS cells), LiOn cells; test: Apoptosis in cytostatics-resistant solid tumor cells; type: cell-based; conditions: SKNAS cells and cisplatin-resistant LiOn cells (caspase-8 underexpression)
Procedure: In contrast to conventional glucocorticoids, the steroid WIL 071 can induce apoptosis also in solid tumor cells.
The DNA fragmentation was measured by flow cytometry), see FIG. 8. The experiments were performed in triplicate. The error bars show the standard deviations of the measured values of three independent experiments.

[3] = system: Nalm-6 cells; test: Synergistic apoptosis induction with cytarabin or vincristine; type: cell-based
Procedure: The experiments were performed in triplicate. The error bars show the standard deviations of the measured values of three independent experiments.

[4] = system: human primary leukocytes; test: Selectivity: apoptosis (DNA fragmentation, flow cytometry) in leukocytes; type: cell-based
Procedure: (§1) WIL 071 acts selectively in malignant cells that are proliferating.
(§2) The DNA fragmentation was measured by flow cytometry, see FIG. 7. The experiments were performed in triplicate. The error bars show the standard deviations of the measured values of three independent experiments.

[5] = system: BJAB cells; test: Selectivity: apoptosis (DNA fragmentation, flow cytometry) in lymphoma cells; type: cell-based
Procedure: as §1, §2

[6] = system: primary glioblastoma cells of a patient; test: Apoptosis in primary human glioblastoma cells; type: cell-based; conditions: grade 4
Procedure: In contrast to conventional glucocorticoids, the steroid WIL 071 can induce apoptosis also in primary human brain tumor cells.
The DNA fragmentation was measured by flow cytometry, see FIG. 10. The experiments were performed in triplicate. The error bars show the standard deviations of the measured values of three independent experiments.

[7] = system: Nalm-6 cells; test: Inhibition of proliferation in leukemia cells (Nalm-6); type: cell-based; conditions: Nalm-6, 24 h, concentration-dependent
Procedure: In leukemia cells (Nalm-6), cell proliferation is inhibited. After 24 h, 1×10^5 cells will have proliferated to almost threefold (2.97×10^5 cells), while cell proliferation is inhibited up to 100% in a concentration-dependent way by treatment with the steroid WIL 071, see FIG. 1. The experiments were performed in triplicate. The error bars show the standard deviations of the measured values of three independent experiments.

[8] = Tolerability (dose escalation, MTD) in an animal model; type: in vivo, NOG-F (Taconic) mice
Procedure: An incremental increase of dose of the three substances Wil-071, Wil-232 and Wil-369 was performed in 8-week-old female NOG-F (Taconic) mice. Different mice were administered one of up to seven different doses of the test substances. The start was on day 1 with the lowest dose of 10 mg/kg. […] All in all, if possible, the doses 10, 20, 40, 80, 100, 150 and 200 mg/kg are tested. Subsequently, the maximum tolerable dose (MTD) was administered to three more animals, and these were subsequently observed for one week, in order to be able to observe any developing symptoms. For this purpose, the animals were observed and weighed on a daily basis. The body weight is considered an indicator of the general condition of the animals.
For the MTD experiment, Wil-071 was dissolved in 100% DMSO, and then diluted 1:50 with a 20% (w/v) 2-hydroxypropyl-beta-cyclodextrin (HPβCD) solution. Thus, 200 μL of injection solution (per mouse) of a 40 mg/kg dose could be achieved. For 80, 100 and 150 mg/kg, the DMSO proportion was increased to up to 4% (v/v) in the final injection solution. In addition, ultrasound had to be employed, and the sample had to be heated at 60° C. for up to 45 min. 200 mg/kg was reached only as a milky suspension. […] Therefore, Wil-071 can be considered non-toxic up to 150 mg/kg. The final MTD could not be determined because of the insufficient solubility.
For 100 mg/kg of Wil-232, the end concentration of DMSO in the injection solution was 2%. In order to dissolve Wil-232, the sample also had to be treated with ultrasound, and heated at 60° C. The dose of 150 mg/kg was achieved only with 4% DMSO, and 200 mg/kg was achieved only as a suspension. […] Otherwise, there were no signs of toxicity, so that the substance can be considered tolerable up to 150 mg/kg. In this case too, a final MTD cannot be determined because of insufficient solubility.
Using a DMSO stock and 20% HPβCD solution, a maximum of only 5 mg/ml was dissolved. A further increase could not be achieved even with more DMSO or HPβCD. Thus, above the dose of 40 mg/kg, a higher injection volume was injected in order to reach the corresponding dose. […] For the tolerability under the current solubility conditions, a value of […] is to be applied. This dose was injected into the 8 animals for pharmacokinetics. In this case too, a final MTD cannot be determined because of insufficient solubility.

[9] = system: glioblastoma cells (DBTRG05MG cells); test: Apoptosis in brain tumor cells; type: cell-based
Procedure: In contrast to conventional glucocorticoids, the steroid WIL 071 can induce apoptosis also in brain tumor cells.
The DNA fragmentation was measured by flow cytometry, see FIG. 9. The experiments were performed in triplicate. The error bars show the standard deviations of the measured values of three independent experiments.

[10] = system: pancreatic carcinoma cells (DAN-G); test: Apoptosis in pancreatic carcinoma cells; type: cell-based; conditions: DAN-G cell line
Procedure: In contrast to conventional glucocorticoids, the steroid WIL 071 can induce apoptosis also in pancreatic carcinoma cells.
The DNA fragmentation was measured by flow cytometry, see FIG. 11. The experiments were performed in triplicate. The error bars show the standard deviations of the measured values of three independent experiments.
The standard treatment for pancreatic carcinoma includes 5-fluorouracil.

**Q.** With CC(C)CCC[C@@H](C)[C@H]1CC[C@H]2[C@@H]3[C@H]4OC[C@@]5(CC[C@H](O)C[C@]5(O)C4=O)[C@H]3CC[C@]12C [WIL-071, 3β,5α-dihydroxy-7β,19-epoxy-cholestan-6-one] as the compound, how does the “apoptosis induction in resistant BiBo cells compared with BJAB” value [1] read?
**A.** The value was “induces as much apoptosis as in the non-resistent lymphoma cells”.

**Q.** And the “apoptosis induction / overcoming of cytostatics resistance” value [2]?
**A.** The value was “Resistances towards cytostatics are overcome”.

**Q.** What about the “synergistic effect on apoptosis with cytarabin” value ([3]; Nalm-6, parallel treatment with cytarabin) of the same compound?
**A.** The value was “synergistic effects”.

**Q.** What about the “synergistic effect on apoptosis with vincristine” value ([3]; Nalm-6, parallel treatment with vincristine) of the same compound?
**A.** The value was “synergistic effects”.

**Q.** What about the “apoptosis induction (DNA fragmentation)” value [4] of the same compound?
**A.** Its value is “apoptosis is not induced”.

**Q.** And the “apoptosis induction (DNA fragmentation)” value [5]?
**A.** The value was “apoptosis is induced in a concentration-dependent way”.

**Q.** And the “apoptosis induction (DNA fragmentation)” value [6]?
**A.** The value was “significantly induces apoptosis”.

**Q.** What about the “inhibition of cell proliferation” value [7] of the same compound?
**A.** The value was “up to 100%”.

**Q.** And the “outcome of injection of the 200 mg/kg suspension” value ([8]; 200 mg/kg as suspension, signs of pulmonary embolism in section)?
**A.** Its value is “immediate death of the animal”.

**Q.** What about the “dose up to which non-toxic / tolerable” value ([8]; injection into caudal vein, mice, final MTD not determinable because of solubility) of the same compound?
**A.** Its value is “up to 150 mg/kg”.

**Q.** And the “apoptosis induction (DNA fragmentation)” value [9]?
**A.** The value was “significantly induces apoptosis”.

**Q.** And the “apoptosis induction (DNA fragmentation)” value [10]?
**A.** Its value is “significantly induces apoptosis”.

— patent publication US20240398836A1, “EPOXY STEROIDS” (priority 2021, published 2024)
